Among the test systems are DU-145 prostate; OVCAR-4 ovarian; SK-MEL-28 melanoma; HT29 colon; PC-3 prostate; CCRF-CEM leukemia; SR leukemia; UACC-62 melanoma; TK-10 renal; CAKI-1 renal; SNB-75 CNS; SN12C renal; BT-549 breast; MDA-MB-435; MOLT-4 leukemia; A498 renal; SF-539 CNS; OVCAR-5 ovarian; HCT-15 colon; ACHN renal; SF-295 CNS; NCI/ADR-RES ovarian; SK-OV-3 ovarian.
Holding throughout (experiment): NCI anticancer screen, dose series, 48 h

Drawing on PubChem BioAssay (NCI), this text covers TGI for 1 molecule.

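A five-concentration, 48-hour dose response in 96-well plates underlies each endpoint, interpolated linearly between surrounding concentrations. TGI: concentration producing complete growth inhibition.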

In the case of `CCCc1cn2c(/C=N/N=C(N)N)c(-c3ccc(Cl)c([N+](=O)[O-])c3)nc2s1`, the TGI in the assay with DU-145 prostate was 3.15 µM; in the assay with OVCAR-4 ovarian, 2.28 µM; in the assay with SK-MEL-28 melanoma, 3.1 µM; in the assay on HT29 colon it was 2.04 µM; in the assay on PC-3 prostate, 3.53 µM; in the assay on CCRF-CEM leukemia it was 0.375 µM. Besides, the TGI with SR leukemia was found to be 2.75 µM; in the assay with UACC-62 melanoma, 3.38 µM; in the assay on TK-10 renal it was 2.91 µM; with CAKI-1 renal it was 3.28 µM; in the assay with SNB-75 CNS, 3.12 µM; in the assay with SN12C renal it was 3.33 µM. Also, the TGI stood at 3.08 µM in the assay with BT-549 breast; 3.21 µM in the assay on MDA-MB-435; 0.546 µM in the assay on MOLT-4 leukemia; 3.2 µM with A498 renal; 3.31 µM in the assay on SF-539 CNS; 2.89 µM with OVCAR-5 ovarian. Further, the TGI is 3.07 µM in the assay on HCT-15 colon; 3.06 µM in the assay on ACHN renal; 3.1 µM with SF-295 CNS; 4.95 µM with NCI/ADR-RES ovarian; 2.86 µM in the assay on SK-OV-3 ovarian.
